Measurements: article PMC9569593, “Measurement of Hepatic CYP3A4 and 2D6 Activity Using Radioiodine-Labeled O-Desmethylvenlafaxine” (International Journal of Molecular Sciences, 2022)
Like-named read-outs stand apart in the source and are kept apart here.

Legend:
[1] = tested on: CYP2D6; details: CYP2D6-inhibited mice (paroxetine 30 mg/kg i.p. 60 min before), i.v.
Experimental: (§1) ^125I-ODV was prepared to a radioactive concentration of 30 MBq/mL by the addition of saline. For metabolite analysis in CYP-inhibited mice, we produced model mice with reduced CYP3A4 or CYP2D6 activity by selective inhibition using ketoconazole or paroxetine. CYP3A4-inhibited mice were injected intraperitoneally with 50 mg/kg of ketoconazole at 60 min before injection of ^125I-ODV, and CYP2D6-inhibited mice were injected intraperitoneally with 30 mg/kg of paroxetine at 60 min before injection of ^125I-ODV. Each of three mice was administered ^125I-ODV via the tail vein (3.0 MBq/100 µL/mouse). At 30 min, the three fasted mice were euthanized under isoflurane, and each gallbladder was collected. The radioactive products in bile were analyzed by TLC using methanol/acetate at a ratio of 100:1. Bile was directly spotted onto a TLC plate.
(§2) To examine the biological distribution in CYP-inhibited mice, we produced model mice in the same way as for the analysis of metabolism in bile. At 5, 15, 30, and 60 min after ^125I-ODV injection, mice were euthanized under isoflurane (n = 4), and the same tissues were collected and quantified.

[2] = tested on: CYP3A4; details: CYP3A4-inhibited mice (ketoconazole 50 mg/kg i.p. 60 min before), i.v.
Experimental: as §1, §2

What does the source list for `CN(C)CC(c1ccc(O)c([125I])c1)C1(O)CCCCC1` (stereo not shown) [^125I-ODV, iodine-125-labeled O-desmethylvenlafaxine]?
Biological distribution, Blood ([1]; 5 min): 1.83 %ID/g; Biological distribution, Brain ([1]; 5 min): 0.79 %ID/g; Biological distribution, Gallbladder ([1]; 5 min): 1.59 %ID/g; Biological distribution, Heart ([1]; 5 min): 5.19 %ID/g; Biological distribution, Kidney ([1]; 5 min): 19.94 %ID/g; Biological distribution, Large intestines ([1]; 5 min): 1.12 %ID/organ; Biological distribution, Liver ([1]; 5 min): 7.19 %ID/g; Biological distribution, Lung ([1]; 5 min): 22.13 %ID/g; Biological distribution, Pancreas ([1]; 5 min): 6.02 %ID/g; Biological distribution, Small intestines ([1]; 5 min): 7.24 %ID/organ; Biological distribution, Spleen ([1]; 5 min): 4.62 %ID/g; Biological distribution, Stomach ([1]; 5 min): 1.77 %ID/organ; Biological distribution, Thyroid ([1]; 5 min): 0.05 %ID/organ; Biological distribution, Urine ([1]; 5 min): 0.33 %ID/organ; Biological distribution, Blood ([1]; 15 min): 1.59 %ID/g; Biological distribution, Brain ([1]; 15 min): 0.82 %ID/g; Biological distribution, Gallbladder ([1]; 15 min): 10.66 %ID/g; Biological distribution, Heart ([1]; 15 min): 2.87 %ID/g; Biological distribution, Kidney ([1]; 15 min): 17.13 %ID/g; Biological distribution, Large intestines ([1]; 15 min): 0.93 %ID/organ; Biological distribution, Liver ([1]; 15 min): 5.56 %ID/g; Biological distribution, Lung ([1]; 15 min): 11.96 %ID/g; Biological distribution, Pancreas ([1]; 15 min): 5.71 %ID/g; Biological distribution, Small intestines ([1]; 15 min): 5.64 %ID/organ; Biological distribution, Spleen ([1]; 15 min): 4.97 %ID/g; Biological distribution, Stomach ([1]; 15 min): 2.40 %ID/organ; Biological distribution, Thyroid ([1]; 15 min): 0.04 %ID/organ; Biological distribution, Urine ([1]; 15 min): 6.18 %ID/organ; Biological distribution, Blood ([1]; 30 min): 1.12 %ID/g; Biological distribution, Brain ([1]; 30 min): 0.71 %ID/g; Biological distribution, Gallbladder ([1]; 30 min): 21.66 %ID/g; Biological distribution, Heart ([1]; 30 min): 1.47 %ID/g; Biological distribution, Kidney ([1]; 30 min): 15.90 %ID/g; Biological distribution, Large intestines ([1]; 30 min): 0.74 %ID/organ; Biological distribution, Liver ([1]; 30 min): 5.08 %ID/g; Biological distribution, Lung ([1]; 30 min): 7.77 %ID/g; Biological distribution, Pancreas ([1]; 30 min): 3.94 %ID/g; Biological distribution, Small intestines ([1]; 30 min): 10.30 %ID/organ; Biological distribution, Spleen ([1]; 30 min): 2.88 %ID/g; Biological distribution, Stomach ([1]; 30 min): 3.20 %ID/organ; Biological distribution, Thyroid ([1]; 30 min): 0.05 %ID/organ; Biological distribution, Urine ([1]; 30 min): 22.96 %ID/organ; Biological distribution, Blood ([1]; 60 min): 0.67 %ID/g; Biological distribution, Brain ([1]; 60 min): 0.58 %ID/g; Biological distribution, Gallbladder ([1]; 60 min): 26.70 %ID/g; Biological distribution, Heart ([1]; 60 min): 0.62 %ID/g; Biological distribution, Kidney ([1]; 60 min): 8.33 %ID/g; Biological distribution, Large intestines ([1]; 60 min): 0.67 %ID/organ; Biological distribution, Liver ([1]; 60 min): 1.75 %ID/g; Biological distribution, Lung ([1]; 60 min): 3.15 %ID/g; Biological distribution, Pancreas ([1]; 60 min): 2.51 %ID/g; Biological distribution, Small intestines ([1]; 60 min): 10.85 %ID/organ; Biological distribution, Spleen ([1]; 60 min): 1.46 %ID/g; Biological distribution, Stomach ([1]; 60 min): 2.20 %ID/organ; Biological distribution, Thyroid ([1]; 60 min): 0.10 %ID/organ; Biological distribution, Urine ([1]; 60 min): 33.92 %ID/organ; Biological distribution, Blood ([2]; 5 min): 1.91 %ID/g; Biological distribution, Brain ([2]; 5 min): 0.71 %ID/g; Biological distribution, Gallbladder ([2]; 5 min): 2.39 %ID/g; Biological distribution, Heart ([2]; 5 min): 5.73 %ID/g; Biological distribution, Kidney ([2]; 5 min): 21.72 %ID/g; Biological distribution, Large intestines ([2]; 5 min): 1.19 %ID/organ; Biological distribution, Liver ([2]; 5 min): 5.66 %ID/g; Biological distribution, Lung ([2]; 5 min): 29.72 %ID/g; Biological distribution, Pancreas ([2]; 5 min): 8.93 %ID/g; Biological distribution, Small intestines ([2]; 5 min): 6.06 %ID/organ; Biological distribution, Spleen ([2]; 5 min): 6.61 %ID/g; Biological distribution, Stomach ([2]; 5 min): 2.37 %ID/organ; Biological distribution, Thyroid ([2]; 5 min): 0.05 %ID/organ; Biological distribution, Urine ([2]; 5 min): 2.10 %ID/organ; Biological distribution, Blood ([2]; 15 min): 1.71 %ID/g; Biological distribution, Brain ([2]; 15 min): 0.80 %ID/g; Biological distribution, Gallbladder ([2]; 15 min): 5.43 %ID/g; Biological distribution, Heart ([2]; 15 min): 3.93 %ID/g; Biological distribution, Kidney ([2]; 15 min): 19.74 %ID/g; Biological distribution, Large intestines ([2]; 15 min): 1.00 %ID/organ; Biological distribution, Liver ([2]; 15 min): 4.72 %ID/g; Biological distribution, Lung ([2]; 15 min): 21.72 %ID/g; Biological distribution, Pancreas ([2]; 15 min): 5.94 %ID/g; Biological distribution, Small intestines ([2]; 15 min): 6.37 %ID/organ; Biological distribution, Spleen ([2]; 15 min): 6.35 %ID/g; Biological distribution, Stomach ([2]; 15 min): 2.34 %ID/organ; Biological distribution, Thyroid ([2]; 15 min): 0.05 %ID/organ; Biological distribution, Urine ([2]; 15 min): 5.25 %ID/organ; Biological distribution, Blood ([2]; 30 min): 1.44 %ID/g; Biological distribution, Brain ([2]; 30 min): 0.74 %ID/g; Biological distribution, Gallbladder ([2]; 30 min): 9.16 %ID/g; Biological distribution, Heart ([2]; 30 min): 2.34 %ID/g; Biological distribution, Kidney ([2]; 30 min): 15.65 %ID/g; Biological distribution, Large intestines ([2]; 30 min): 1.00 %ID/organ; Biological distribution, Liver ([2]; 30 min): 5.03 %ID/g; Biological distribution, Lung ([2]; 30 min): 11.31 %ID/g; Biological distribution, Pancreas ([2]; 30 min): 23.69 %ID/g; Biological distribution, Small intestines ([2]; 30 min): 7.71 %ID/organ; Biological distribution, Spleen ([2]; 30 min): 4.03 %ID/g; Biological distribution, Stomach ([2]; 30 min): 2.24 %ID/organ; Biological distribution, Thyroid ([2]; 30 min): 0.09 %ID/organ; Biological distribution, Urine ([2]; 30 min): 5.63 %ID/organ; Biological distribution, Blood ([2]; 60 min): 0.65 %ID/g; Biological distribution, Brain ([2]; 60 min): 0.52 %ID/g; Biological distribution, Gallbladder ([2]; 60 min): 20.14 %ID/g; Biological distribution, Heart ([2]; 60 min): 0.96 %ID/g; Biological distribution, Kidney ([2]; 60 min): 9.60 %ID/g; Biological distribution, Large intestines ([2]; 60 min): 0.68 %ID/organ; Biological distribution, Liver ([2]; 60 min): 2.12 %ID/g; Biological distribution, Lung ([2]; 60 min): 5.81 %ID/g; Biological distribution, Pancreas ([2]; 60 min): 2.77 %ID/g; Biological distribution, Small intestines ([2]; 60 min): 10.07 %ID/organ; Biological distribution, Spleen ([2]; 60 min): 1.94 %ID/g; Biological distribution, Stomach ([2]; 60 min): 1.90 %ID/organ; Biological distribution, Thyroid ([2]; 60 min): 0.11 %ID/organ; Biological distribution, Urine ([2]; 60 min): 2.01 %ID/organ
